Laboratory results published in patent US5866571A, “9-substituted 2-(2-n-alkoxyphenyl)-purin-6-ones” (Bayer Aktiengesellschaft, priority 1995, dated 1999).

Experiments:
Assay type in all cases: biochemical
[1] = test system: PDE I (Ca-calmodulin-stimulatable PDE I); experiment: Inhibition of the phosphodiesterases in vitro: PDE I; conditions: enzyme from porcine aorta or porcine brain; 1 μM CaCl2, 0.1 μM calmodulin; 10^-6 mol/l nucleotide, pH 7.5, 30 minutes
Description: (§1) Activity of the phosphodiesterases (PDE's)
(§2) The cGMP-stimulatable PDE II, the cGMP-inhibitable PDE III and the cAMP-specific PDE IV were isolated from either the porcine or the bovine myocardium. The Ca-calmodulin-stimulatable PDE I was isolated from porcine aorta or porcine brain. The cGMP-specific PDE V was obtained from porcine small intestine, porcine aorta and/or human blood platelets. Purification was carried out by anion exchange chromatography on MonoQ^R Pharmacia essentially by the method of M. Hoey and Miles D. Houslay, Biochemical Pharmacology, Volume 40, 193-202 (1990).
(§3) The enzyme activity is determined in a test batch of 100 μl in 20 mM Tris/HCl buffer of pH 7.5 which contains 5 mM MgCl2, 0.1 mg/ml of bovine serum albumin and either 800 Bq of ^3 HcAMP or ^3 HcGMP. The final concentration of the corresponding nucleotides is 10^-6 mol/l. The reaction is started by addition of the enzyme and the amount of enzyme is chosen such that about 50% of the substrate is reacted during the incubation time of 30 minutes. In order to test the cGMP-stimulatable PDE II, ^3 HcAMP is used as the substrate and 10^-6 mol/l of non-labelled cGMP is added to the batch. In order to test the Ca-calmodulin-dependent PDE I, 1 μM CaCl2 and 0.1 μM calmodulin are also added to the reaction batch. The reaction is stopped by addition of 100 μl of acetonitrile which contains 1 mM cAMP and 1 mM AMP. 100 μl of the reaction batch are separated on the […] and the cleavage products are determined quantitatively "on line" with a flow-through scintillation counter. The substance concentration at which the rate of reaction is reduced by 50% is measured.
(§4) Inhibition of the phosphodiesterases in vitro

[2] = test system: PDE II (cGMP-stimulatable PDE II); experiment: Inhibition of the phosphodiesterases in vitro: PDE II; conditions: enzyme from porcine or bovine myocardium; ^3HcAMP substrate plus 10^-6 mol/l non-labelled cGMP, pH 7.5, 30 minutes
Description: as §1, §2, §3, §4

[3] = test system: PDE V (cGMP-specific PDE V); experiment: Inhibition of the phosphodiesterases in vitro: PDE V; conditions: enzyme from porcine small intestine, porcine aorta and/or human blood platelets; 10^-6 mol/l nucleotide, pH 7.5, 30 minutes
Description: as §1, §2, §3, §4

Compound | IC50 [1] | IC50 [2] | IC50 [3]
CCCCCCC(CC)n1cnc2c(=O)[nH]c(-c3cc(S(=O)(=O)N4CCOCC4)ccc3OCCC)nc21 (stereo not drawn) [Example 57] | 300 nM | 300 nM | 100 nM
CCCOc1ccccc1-c1nc2c(ncn2C(C)CCCc2ccccc2)c(=O)[nH]1 (stereo not drawn) [Example 11] | 500 nM | 300 nM | 500 nM
CCCCCCC(C(C)O)n1cnc2c(=O)[nH]c(-c3ccccc3OCCC)nc21 (stereo not drawn) [Example 3, 9-(2-hydroxy-3-nonyl)-2-(2-n-propoxyphenyl)-purin-6-one] | 50000 nM | 6000 nM | 100 nM
CCCCCCC(C(C)NC(C)=O)n1cnc2c(=O)[nH]c(-c3ccccc3OCCC)nc21 (stereo not drawn) [Example 37, 9-(2-Acetamido-3-nonyl)-2-(2-n-propoxyphenyl)-purin-6-one] | 2000 nM | 2000 nM | 1000 nM
CCCOc1ccccc1-c1nc2c(ncn2C(CCCc2ccccc2)C(C)O)c(=O)[nH]1 (stereo not drawn) [Example 5, 9-(2-hydroxy-6-phenyl-3-hexyl)-2-(2-n-propoxyphenyl)-purin-6-one] | 1000 nM | 500 nM | 2000 nM
CCCOc1ccccc1-c1nc2c(ncn2C(CCc2ccccc2)C(C)O)c(=O)[nH]1 (stereo not drawn) [Example 4, 9-(2-hydroxy-5-phenyl-3-methyl)-2-(2-n-propoxyphenyl)-purin-6-one] | 2000 nM | 1000 nM | 5000 nM
